This passage reports IC50 results from patent publication US5212163A, “Compounds” (Beecham Group p.l.c., priority 1989, dated 1993).

The target in this assay is rabbit bone collagenase (Oryctolagus cuniculus, UniProt P13943). Description: biochemical. The protocol:
The test is performed essentially as in Cawston and Barrett Anal. Biochem. 99, 340-345 (1979). Compounds for testing are dissolved in methanol and added to purified rabbit bone collagenase or human collagenase purified from culture supernatants from the human lung fibroblast cell line, WI-38, diluted in a suitable aqueous buffer. After a 5 min pre-incubation at 37° C., the assay tubes are cooled to 4° C. and ^14 C-acetylated rat skin Type I collagen is added. The assay tubes are incubated at 37° C. overnight. The ^14 C-collagen forms insoluble fibrils which are the substrate for the enzyme.
To terminate the assay, the assay tubes are spun at 12000 rpm for 25 min. Undigested ^14 C-collagen remains as insoluble fibrils and is pelleted, while digested ^14 C-collagen remains as soluble peptides in the supernatant. A sample of the supernatant is taken for liquid scintillation counting.

rabbit bone collagenase, sequence (P13943 99-468): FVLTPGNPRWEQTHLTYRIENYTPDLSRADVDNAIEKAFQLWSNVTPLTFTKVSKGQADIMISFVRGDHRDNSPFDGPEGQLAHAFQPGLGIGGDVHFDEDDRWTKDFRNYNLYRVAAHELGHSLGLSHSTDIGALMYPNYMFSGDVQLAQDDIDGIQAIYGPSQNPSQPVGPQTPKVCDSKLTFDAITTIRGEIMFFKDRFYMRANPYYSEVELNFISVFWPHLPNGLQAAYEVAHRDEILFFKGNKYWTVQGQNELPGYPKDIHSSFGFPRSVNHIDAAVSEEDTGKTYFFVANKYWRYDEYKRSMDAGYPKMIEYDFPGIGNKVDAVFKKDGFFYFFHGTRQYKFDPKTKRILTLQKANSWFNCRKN

As usually defined, the IC50 is the concentration at which inhibition is half-maximal. A low value points to inhibition by little substance. With `COC(=O)[C@H](C)NC(=O)[C@H](Cc1c[nH]c2ccccc12)NC(=O)[C@H](CC(C)C)NC(C)P(=O)(O)O` (stereo partly drawn) [Example E1, N-[N-[N-(1-Phosphonoethyl)-leucyl]-(S)-tryptophyl]-(S)-alanine, methyl ester], half-maximal inhibition (IC50) required 2.4 µM. This counts as single-digit micromolar. Take `COC(=O)[C@H](C)NC(=O)[C@H](Cc1ccc(OC)cc1)NC(=O)[C@H](CC(C)C)NC(C)P(=O)(O)O` (stereo partly drawn) [Example E2, N-[N-[N-(1-Phosphonoethyl)-leucyl]-O-methyl-(S)-tyrosyl]-(S)-alanine, methyl ester]: inhibition was half-maximal at 3.1 µM (IC50).
